Assay results as given in patent US11124518B2, “L,2-dihydro-3H-pyrazolo[3,4-D]pyrimidin-3-one analogs” (Recurium IP Holdings, LLC, priority 2017, dated 2021).
Structures can show the parent of a compound that is named as a salt.

How the values were obtained:
Wee1 kinase = Wee1 kinase (Homo sapiens (Human), UniProt P30291); test: Wee1 Binding Assay (FRET); settings: Wee1 kinase 2 nM, tracer 178 50 nM, 60 min at RT, read-out: Wee1 Enzymatic IC50
Method: Wee 1 kinase was determined by using Flurorescence Resonance Energy Transfer (FRET) assay. […] The plate was shaken for 30 seconds, incubated for 60 min at RT, and recorded on fluorescence plate reader.

H23 cells = test: H23 Cellular Proliferation Assay (CellTiter-Glo); format: cell-based; settings: Homo sapiens, NCI-H23, 96 h, 4 days
Method: Cells were treated with compounds diluted in DMSO and a 9 point 5-fold serial dilutions. Plates were placed in 37° C., 5% CO2 to incubate for 4 days. Before they were developed by adding 100 μL of CellTiter-Glo reagent (Promega) to the assay plate, plates were shaken briefly for 2 mins and allowed to incubate at RT for 10 mins. The plates are read with a M5e plate reader according to CellTiter-Glo protocol. The GraphPad Prism software was used to get IC50 values. The bottom of the plates was pasted with white back seal and luminescence was recorded with Enspire or Envision.

SW480 cells = test: SW480 Cellular Proliferation Assay (CellTiter-Glo); format: cell-based; settings: Homo sapiens, 96 h, 4 days
Method: Cells were treated with compounds diluted in DMSO and a 10 point 3-fold serial dilutions. Plates were placed in 37° C., 5% CO2 for to incubate for 4 days. Before they were developed by adding 100 μL of CellTiter-Glo reagent (Promega) to the assay plate, plates were shaken briefly for 2 mins and allowed to incubate at RT for 60 mins. The bottom of the plates was pasted with white back seal and luminescence was recorded with Enspire or Envision.

Wee1 kinase, sequence (P30291 whole entry): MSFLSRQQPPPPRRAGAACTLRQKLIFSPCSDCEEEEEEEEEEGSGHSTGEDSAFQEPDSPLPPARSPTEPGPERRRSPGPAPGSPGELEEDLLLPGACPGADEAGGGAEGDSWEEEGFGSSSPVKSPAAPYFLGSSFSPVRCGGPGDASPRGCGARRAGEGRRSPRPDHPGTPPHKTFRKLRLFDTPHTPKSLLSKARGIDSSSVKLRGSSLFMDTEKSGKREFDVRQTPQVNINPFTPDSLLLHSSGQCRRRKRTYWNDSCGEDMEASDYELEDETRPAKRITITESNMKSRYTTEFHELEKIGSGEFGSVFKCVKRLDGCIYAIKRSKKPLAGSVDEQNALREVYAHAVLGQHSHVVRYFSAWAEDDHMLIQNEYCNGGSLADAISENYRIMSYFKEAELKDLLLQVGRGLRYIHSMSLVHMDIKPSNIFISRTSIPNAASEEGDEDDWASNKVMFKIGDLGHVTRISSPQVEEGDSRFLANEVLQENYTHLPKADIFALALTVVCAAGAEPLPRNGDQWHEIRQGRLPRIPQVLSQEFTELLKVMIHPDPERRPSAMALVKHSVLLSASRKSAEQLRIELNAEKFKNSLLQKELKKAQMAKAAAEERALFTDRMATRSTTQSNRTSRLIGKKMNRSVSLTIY

IC50 (Wee1 kinase) [nM] | IC50 (SW480 cells) [nM] | Compound | IC50 (H23 cells) [nM]
< 10 | – | C=CCn1c(=O)c2cnc(Nc3ccc4c(c3)[C@@H](C)NCC4(C)C)nc2n1-c1cccc(C(C)(C)O)n1 (single isomer, unassigned) [Example 29] | 100 to 1000
< 10 | – | C=CCn1c(=O)c2cnc(Nc3ccc4c(c3)[C@H](C)NCC4(C)C)nc2n1-c1cccc(C(C)(C)O)n1 (single isomer, unassigned) [Example 30] | < 100
– | 100 to 1000 | C=CCn1c(=O)c2cnc(Nc3ccc(N4CCN(C)CC4)cc3)nc2n1-c1cccc(C(C)(C)O)n1 [AZD1775, 2-allyl-1-(6-(2-hydroxypropan-2-yl)pyridin-2-yl)-6-(4-(4-methylpiperazin-1-yl)phenylamino)-1,2-dihydropyrazolo[3,4-d]pyrimidin-3-one, reference compound] | 100 to 1000
< 10 | > 1000 | C=CCn1c(=O)c2cnc(Nc3ccc4c(c3)CNCC43CC3)nc2n1-c1cccc(C(C)(C)O)n1 [Example 2, 2-Alyl-6-((2′,3′-dihydro-1′H-spiro[cyclopropane-1,4′-isoquinolin]-7′-yl)amino)-1-(6-(2-hydroxypropan-2-yl)pyridin-2-yl)-1,2-dihydro-3H-pyrazolo[3,4-d]pyrimidin-3-one hydrochloride] | < 100
< 10 | – | C=CCn1c(=O)c2cnc(Nc3ccc4c(c3)CN(C(C)C)CC43CC3)nc2n1-c1cccc(C(C)(C)O)n1 [Example 3, 2-Allyl-1-(6-(2-hydroxypropan-2-yl)pyridin-2-yl)-6-((2′-isopropyl-2′,3′-dihydro-1′H-spiro[cyclopropane-1,4′-isoquinolin]-7′-yl)amino)-1,2-dihydro-3H-pyrazolo[3,4-d]pyrimidin-3-one] | –
< 10 | – | C=CCn1c(=O)c2cnc(Nc3ccc4c(c3)CN(C(C)=O)CC43CC3)nc2n1-c1cccc(C(C)(C)O)n1 [Example 4, 6-((2′-Acetyl-2′,3′-dihydro-1′H-spiro[cyclopropane-1,4′-isoquinolin]-7′-yl)amino)-2-allyl-1-(6-(2-hydroxypropan-2-yl)pyridin-2-yl)-1,2-dihydro-3H-pyrazolo[3,4-d]pyrimidin-3-one] | –
< 10 | 100 to 1000 | C=CCn1c(=O)c2cnc(Nc3ccc4c(c3)CN(C)CC4)nc2n1-c1cccc(C(C)(C)O)n1 [Example 5, 2-Allyl-1-(6-(2-hydroxypropan-2-yl)pyridin-2-yl)-6-((2-methyl-1,2,3,4-tetrahydroisoquinolin-7-yl)amino)-1,2-dihydro-3H-pyrazolo[3,4-d]pyrimidin-3-one] | < 100
< 10 | – | C=CCn1c(=O)c2cnc(Nc3ccc4c(c3)CN(CC)CC4)nc2n1-c1cccc(C(C)(C)O)n1 [Example 7, 2-Allyl-6-((2-ethyl-1,2,3,4-tetrahydroisoquinolin-7-yl)amino)-1-(6-(2-hydroxypropan-2-yl)pyridin-2-yl)-1,2-dihydro-3H-pyrazolo[3,4-d]pyrimidin-3-one] | 100 to 1000
< 10 | 100 to 1000 | C=CCn1c(=O)c2cnc(Nc3ccc4c(c3)CN(C(C)=O)CC4)nc2n1-c1cccc(C(C)(C)O)n1 [Example 8, 6-((2-Acetyl-1,2,3,4-tetrahydroisoquinolin-7-yl)amino)-2-allyl-1-(6-(2-hydroxypropan-2-yl)pyridin-2-yl)-1,2-dihydro-3H-pyrazolo[3,4-d]pyrimidin-3-one] | > 1000
< 10 | 100 to 1000 | C=CCn1c(=O)c2cnc(Nc3ccc4c(c3)CN(S(C)(=O)=O)CC4)nc2n1-c1cccc(C(C)(C)O)n1 [Example 9, 2-Allyl-1-(6-(2-hydroxypropan-2-yl)pyridin-2-yl)-6-((2-(methylsulfonyl)-1,2,3,4-tetrahydroisoquinolin-7-yl)amino)-1,2-dihydro-3H-pyrazolo[3,4-d]pyrimidin-3-one] | –
< 10 | – | C=CCn1c(=O)c2cnc(Nc3ccc4c(c3)CN(C(C)C)CC4)nc2n1-c1cccc(C(C)(C)O)n1 [Example 10, 2-Allyl-1-(6-(2-hydroxypropan-2-yl)pyridin-2-yl)-6-((2-isopropyl-1,2,3,4-tetrahydroisoquinolin-7-yl)amino)-1,2-dihydro-3H-pyrazolo[3,4-d]pyrimidin-3-one] | –
– | – | C=CCn1c(=O)c2cnc(Nc3ccc4c(c3)CN(C3COC3)CC4)nc2n1-c1cccc(C(C)(C)O)n1 [Example 14, 2-Allyl-1-(6-(2-hydroxypropan-2-yl)pyridin-2-yl)-6-((2-(oxetan-3-yl)-1,2,3,4-tetrahydroisoquinolin-7-yl)amino)-1,2-dihydro-3H-pyrazolo[3,4-d]pyrimidin-3-one] | 100 to 1000
– | – | C=CCn1c(=O)c2cnc(Nc3ccc4c(c3)CCN(CCO)C4)nc2n1-c1cccc(C(C)(C)O)n1 [Example 17, 2-Allyl-6-((2-(2-hydroxyethyl)-1,2,3,4-tetrahydroisoquinolin-6-yl)amino)-1-(6-(2-hydroxypropan-2-yl)pyridin-2-yl)-1,2-dihydro-3H-pyrazolo[3,4-d]pyrimidin-3-one hydrogen chloride] | 100 to 1000
< 10 | – | C=CCn1c(=O)c2cnc(Nc3ccc4c(c3)CCN(C3COC3)C4)nc2n1-c1cccc(C(C)(C)O)n1 [Example 18, 2-Allyl-1-(6-(2-hydroxypropan-2-yl)pyridin-2-yl)-6-((2-(oxetan-3-yl)-1,2,3,4-tetrahydroisoquinolin-6-yl)amino)-1,2-dihydro-3H-pyrazolo[3,4-d]pyrimidin-3-one] | 100 to 1000
< 10 | – | C=CCn1c(=O)c2cnc(Nc3ccc4c(c3)CNC4)nc2n1-c1cccc(C(C)(C)O)n1 [Example 21, 2-Allyl-1-(6-(2-hydroxypropan-2-yl)pyridin-2-yl)-6-(isoindolin-5-ylamino)-1,2-dihydro-3H-pyrazolo[3,4-d]pyrimidin-3-one hydrogen chloride] | 100 to 1000
< 10 | – | C=CCn1c(=O)c2cnc(Nc3ccc4c(c3)CN(C)C4)nc2n1-c1cccc(C(C)(C)O)n1 [Example 23, 2-Allyl-1-(6-(2-hydroxypropan-2-yl)pyridin-2-yl)-6-((2-methylisoindolin-5-yl)amino)-1,2-dihydro-3H-pyrazolo[3,4-d]pyrimidin-3-one] | 100 to 1000
10 to 100 | – | C=CCn1c(=O)c2cnc(Nc3ccc4c(n3)CN(C)CC4)nc2n1-c1cccc(C(C)(C)O)n1 [Example 24, 2-Allyl-1-(6-(2-hydroxypropan-2-yl)pyridin-2-yl)-6-((7-methyl-5,6,7,8-tetrahydro-1,7-naphthyridin-2-yl)amino)-1,2-dihydro-3H-pyrazolo[3,4-d]pyrimidin-3-one] | –
< 10 | – | C=CCn1c(=O)c2cnc(Nc3cnc4c(c3)CN(C)CC4)nc2n1-c1cccc(C(C)(C)O)n1 [Example 25, 2-Allyl-1-(6-(2-hydroxypropan-2-yl)pyridin-2-yl)-6-((6-methyl-5,6,7,8-tetrahydro-1,6-naphthyridin-3-yl)amino)-1,2-dihydro-3H-pyrazolo[3,4-d]pyrimidin-3-one] | –
10 to 100 | – | C=CCn1c(=O)c2cnc(Nc3ccc4c(n3)CCN(C)C4)nc2n1-c1cccc(C(C)(C)O)n1 [Example 26, 2-Allyl-1-(6-(2-hydroxypropan-2-yl)pyridin-2-yl)-6-((6-methyl-5,6,7,8-tetrahydro-1,6-naphthyridin-2-yl)amino)-1,2-dihydro-3H-pyrazolo[3,4-d]pyrimidin-3-one] | –
– | – | C=CCn1c(=O)c2cnc(Nc3ccc4c(c3)CN(C)CC4(F)F)nc2n1-c1cccc(C(C)(C)O)n1 [Example 27, 2-Allyl-6-((4,4-difluoro-2-methyl-1,2,3,4-tetrahydroisoquinolin-7-yl)amino)-1-(6-(2-hydroxypropan-2-yl)pyridin-2-yl)-1,2-dihydro-3H-pyrazolo[3,4-d]pyrimidin-3-one] | > 1000
< 10 | – | C=CCn1c(=O)c2cnc(Nc3ccc4c(c3)CNCC4(F)F)nc2n1-c1cccc(C(C)(C)O)n1 [Example 28, 2-Allyl-6-((4,4-difluoro-1,2,3,4-tetrahydroisoquinolin-7-yl)amino)-1-(6-(2-hydroxypropan-2-yl)pyridin-2-yl)-1,2-dihydro-3H-pyrazolo[3,4-d]pyrimidin-3-one hydrogen chloride] | 100 to 1000

Compound | IC50 (Wee1 kinase) [nM] | IC50 (SW480 cells) [nM] | IC50 (H23 cells) [nM]
C=CCn1c(=O)c2cnc(Nc3ccc4c(c3)CN(C)CC43CC3)nc2n1-c1cccc(C(C)(C)O)n1 [Example 1, 2-Allyl-1-(6-(2-hydroxypropan-2-yl)pyridin-2-yl)-6-((2′-methyl-2′,3′-dihydro-1′H-spiro-[cyclopropane-1,4′-isoquinolin]-7′-yl)amino)-1,2-dihydro-3H-pyrazolo[3,4-d]pyrimidin-3-one] | – | 100 to 1000 | < 100
C=CCn1c(=O)c2cnc(Nc3ccc4c(c3)CNCC4)nc2n1-c1cccc(C(C)(C)O)n1 [Example 6, 2-Allyl-1-(6-(2-hydroxypropan-2-yl)pyridin-2-yl)-6-((1,2,3,4-tetrahydroisoquinolin-7-yl)amino)-1,2-dihydro-3H-pyrazolo[3,4-d]pyrimidin-3-one hydrochloride] | < 10 | 100 to 1000 | 100 to 1000
